Results on 10 molecules are retold here after patent publication US8754242B2, “Herbicides” (Syngenta Crop Protection LLC, priority 2007, dated 2014).

Type in all cases: in vivo
In assay [1] the test system is Echinochloa crus-galli (ECHCG). The assay can be described thus: Test Example 1 pre-emergence herbicidal activity. The note with it: Echinochloa crus-galli, 480 h, rate 250 g/ha, evaluated 20 days later, read-out: Pre-emergence activity ECHCG (100=total damage to plant; 0=no damage to plant). Put shortly: (§1)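 Once sown in standard soil, pots received an aqueous spray of the formulated active ingredient, either after one day or after ten days of controlled glasshouse growth. Plants then grew under optimum greenhouse conditions. Herbicidal effect was assessed visually 15 (post-emergence) or 20 (pre-emergence) days later, 100 meaning total plant damage.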

For assay [2], the system named is Digitaria sanguinalis (DIGSA). As to the kind of experiment: Test Example 1 pre-emergence herbicidal activity. The note with it: Digitaria sanguinalis, 480 h, rate 250 g/ha, evaluated 20 days later, read-out: Pre-emergence activity DIGSA (100=total damage to plant; 0=no damage to plant). Put shortly: as §1
Assay [3] relates to Setaria faberi (SETFA). The assay can be described thus: Test Example 1 pre-emergence herbicidal activity. The note with it: Setaria faberi, 480 h, rate 250 g/ha, evaluated 20 days later, read-out: Pre-emergence activity SETFA (100=total damage to plant; 0=no damage to plant). Put shortly: as §1
The test system of assay [4] is Avena fatua (AVEFA). As to the kind of experiment: Test Example 1 pre-emergence herbicidal activity. The settings on record: rate 250 g/ha, evaluated 20 days later; for pest or weed control at 250 g/ha: Avena fatua, 480 h, read-out: Pre-emergence activity AVEFA (100=total damage to plant; 0=no damage to plant). In outline:
as §1

In assay [5] the test system is Alopecurus myosuroides (ALOMY). As to the kind of experiment: Test Example 1 pre-emergence herbicidal activity. The note with it: Alopecurus myosuroides, 480 h, rate 250 g/ha, evaluated 20 days later, read-out: Pre-emergence activity ALOMY (100=total damage to plant; 0=no damage to plant). Put shortly: as §1
For assay [6], the system named is Lolium perenne (LOLPE). As to the kind of experiment: Test Example 1 pre-emergence herbicidal activity. The settings on record: Lolium perenne, 480 h, rate 250 g/ha, evaluated 20 days later, read-out: Pre-emergence activity LOLPE (100=total damage to plant; 0=no damage to plant). In outline: as §1
In assay [7] the test system is Echinochloa crus-galli (ECHCG). As to the kind of experiment: Test Example 1 post-emergence herbicidal activity. The note with it: 360 h, rate 125 g/ha, evaluated 15 days later, read-out: Post-emergence activity ECHCG (100=total damage to plant; 0=no damage to plant). In outline:
as §1

The test system of assay [8] is Digitaria sanguinalis (DIGSA). As to the kind of experiment: Test Example 1 post-emergence herbicidal activity. The settings on record: rate 125 g/ha, evaluated 15 days later; for pest or weed control at 125 g/ha: 360 h, read-out: Post-emergence activity DIGSA (100=total damage to plant; 0=no damage to plant). In outline:
as §1

The test system of assay [9] is Setaria faberi (SETFA). The assay can be described thus: Test Example 1 post-emergence herbicidal activity. The note with it: 360 h, rate 125 g/ha, evaluated 15 days later, read-out: Post-emergence activity SETFA (100=total damage to plant; 0=no damage to plant). In outline:
as §1

The test system of assay [10] is Avena fatua (AVEFA). The assay can be described thus: Test Example 1 post-emergence herbicidal activity. The settings on record: 360 h, rate 125 g/ha, evaluated 15 days later, read-out: Post-emergence activity AVEFA (100=total damage to plant; 0=no damage to plant). Put shortly: as §1
In assay [11] the test system is Alopecurus myosuroides (ALOMY). The assay can be described thus: Test Example 1 post-emergence herbicidal activity. The note with it: 360 h, rate 125 g/ha, evaluated 15 days later, read-out: Post-emergence activity ALOMY (100=total damage to plant; 0=no damage to plant). In outline: as §1
The test system of assay [12] is Lolium perenne (LOLPE). As to the kind of experiment: Test Example 1 post-emergence herbicidal activity. The note with it: 360 h, rate 125 g/ha, evaluated 15 days later, read-out: Post-emergence activity LOLPE (100=total damage to plant; 0=no damage to plant). Put shortly: as §1

For the molecule `CCc1cc(C)cc(C)c1C1=C(O)[C@H]2[C@@H](C1=O)[C@@H]1CC[C@H]2O1` [Example T2], the pest or weed control at 250 g/ha in [1] came out at 100%; in assay [2] it was 100%; in the assay with Setaria faberi (SETFA) [3], 90%; with Avena fatua (AVEFA) [4], 100%; in [5], 100%; with Lolium perenne (LOLPE) [6], 100%. Besides, the pest or weed control at 125 g/ha in [7] was 100%; in [8], 100%; in the assay with Setaria faberi (SETFA) [9], 80%; in the assay on Avena fatua (AVEFA) [10], 90%; in [11], 100%; with Lolium perenne (LOLPE) [12], 100%.

Regarding `CCc1cc(C)cc(CC)c1C1=C(O)[C@H]2[C@@H](C1=O)[C@@H]1C=C[C@H]2O1` [Example T4], the pest or weed control at 250 g/ha in [1] turned out to be 100%; in assay [2], 100%; in the assay with Setaria faberi (SETFA) [3], 90%; in the assay on Avena fatua (AVEFA) [4], 90%; in assay [5], 90%; with Lolium perenne (LOLPE) [6] it was 100%. Besides, the pest or weed control at 125 g/ha amounted to 100% in assay [7]; 80% in [8]; 80% in the assay on Setaria faberi (SETFA) [9]; 90% in the assay with Avena fatua (AVEFA) [10]; 80% in assay [11]; 90% in the assay with Lolium perenne (LOLPE) [12].

With `CCc1cc(CC)c(C2=C(O)[C@H]3[C@@H](C2=O)[C@@H]2CC[C@H]3O2)c(CC)c1` [Example T5], the pest or weed control at 250 g/ha is 100% in [1]; 100% in assay [2]; 80% in the assay with Setaria faberi (SETFA) [3]; 80% with Avena fatua (AVEFA) [4]; 100% in assay [5]; 100% in the assay with Lolium perenne (LOLPE) [6]. The pest or weed control at 125 g/ha in assay [7] stood at 100%; in assay [8], 100%; with Setaria faberi (SETFA) [9], 90%; in the assay with Avena fatua (AVEFA) [10] it was 70%; in assay [11], 70%; in the assay with Lolium perenne (LOLPE) [12] it was 80%.

Take `Cc1cc(C)c(C2=C(O)[C@H]3[C@@H](C2=O)[C@]2(C)CC[C@@]3(C)O2)c(C)c1` [Example T6]: the pest or weed control at 250 g/ha in [1] was 90%; in [2], 90%; with Setaria faberi (SETFA) [3], 80%; with Avena fatua (AVEFA) [4], 30%; in [5], 80%; with Lolium perenne (LOLPE) [6], 100%. Moreover, the pest or weed control at 125 g/ha in [7] came to 90%; in assay [8], 90%; in the assay on Setaria faberi (SETFA) [9], 80%; with Avena fatua (AVEFA) [10], 80%; in [11], 80%; in the assay with Lolium perenne (LOLPE) [12], 80%.

For `CCc1cc(C)cc(CC)c1C1=C(O)[C@H]2[C@@H](C1=O)[C@]1(C)CC[C@@]2(C)O1` [Example T7], the pest or weed control at 250 g/ha in [1] worked out at 90%; in assay [2], 80%; in the assay on Setaria faberi (SETFA) [3], 90%; in the assay with Avena fatua (AVEFA) [4], 80%; in assay [5] it was 100%; in the assay with Lolium perenne (LOLPE) [6], 100%. The pest or weed control at 125 g/ha in assay [7] came to 90%; in assay [8], 70%; in the assay with Setaria faberi (SETFA) [9], 90%; in the assay with Avena fatua (AVEFA) [10] it was 90%; in assay [11] it was 100%; with Lolium perenne (LOLPE) [12], 90%.

Consider `CCc1cc(C)cc(CC)c1C1=C(O)[C@H]2[C@@H](C1=O)[C@@H]1CC[C@@]2(C)O1` [Example T8], for which the pest or weed control at 250 g/ha in [1] came to 100%; in assay [2] it was 100%; in the assay on Setaria faberi (SETFA) [3] it was 100%; with Avena fatua (AVEFA) [4], 90%; in assay [5], 100%; in the assay on Lolium perenne (LOLPE) [6], 100%. Besides, the pest or weed control at 125 g/ha (in assay [7]; in assay [8]; in the assay on Setaria faberi (SETFA) [9]; with Avena fatua (AVEFA) [10]; in [11]; with Lolium perenne (LOLPE) [12]) was 100% in each case.

As for `CCc1cc(C)cc(CC)c1C1=C(O)[C@H]2[C@@H](C1=O)[C@@H]1CC[C@H]2O1` [Example T10], the pest or weed control at 250 g/ha in assay [1] turned out to be 90%; in [2], 80%; in the assay on Setaria faberi (SETFA) [3], 80%; in assay [5], 80%; with Lolium perenne (LOLPE) [6] it was 100%. The “Pre-emergence activity AVEFA (100=total damage to plant; 0=no damage to plant)” value in the assay on Avena fatua (AVEFA) [4] amounted to 70. The pest or weed control at 125 g/ha was 80% in assay [7]; 80% in the assay on Setaria faberi (SETFA) [9]; 70% in the assay on Avena fatua (AVEFA) [10]; 70% in assay [11]; 80% in the assay with Lolium perenne (LOLPE) [12]. Further, the “Post-emergence activity DIGSA (100=total damage to plant; 0=no damage to plant)” value in assay [8] came to 50.

As for `C#CC1=C[C@@H]2O[C@H]1[C@H]1C(O)=C(c3c(CC)cc(C)cc3CC)C(=O)[C@H]12` [Example T12], the pest or weed control at 250 g/ha worked out at 0% in [1]; 40% in assay [2]; 40% in the assay on Setaria faberi (SETFA) [3]; 10% in the assay with Avena fatua (AVEFA) [4]; 10% in assay [5]; 40% in the assay with Lolium perenne (LOLPE) [6]. Further, the pest or weed control at 125 g/ha in assay [7] was found to be 70%; in assay [8], 70%; in the assay with Setaria faberi (SETFA) [9], 70%; with Avena fatua (AVEFA) [10], 50%; in [11], 70%; with Lolium perenne (LOLPE) [12], 10%.

Turning to `CCc1cc(C)cc(CC)c1C1=C(O)[C@H]2[C@@H](C1=O)[C@@H]1CC[C@@]2(CO)O1` [Example T14], the pest or weed control at 250 g/ha in assay [1] came out at 90%; in assay [2], 70%; with Setaria faberi (SETFA) [3] it was 100%; with Avena fatua (AVEFA) [4], 90%; in [5] it was 90%; in the assay on Lolium perenne (LOLPE) [6] it was 100%. Further, the pest or weed control at 125 g/ha in [7] was found to be 100%; in assay [8], 90%; with Setaria faberi (SETFA) [9] it was 100%; in the assay with Avena fatua (AVEFA) [10], 80%; in assay [11], 80%; in the assay on Lolium perenne (LOLPE) [12] it was 80%.

For `CCC1=NOC2C1[C@@H]1O[C@H]2[C@H]2C(O)=C(c3c(CC)cc(C)cc3CC)C(=O)[C@H]21` (stereo partly drawn) [Example T15], the pest or weed control at 250 g/ha in [1] worked out at 80%; in assay [2] it was 30%; with Setaria faberi (SETFA) [3] it was 60%; in the assay with Avena fatua (AVEFA) [4], 20%; in assay [5] it was 40%; in the assay with Lolium perenne (LOLPE) [6], 40%. The pest or weed control at 125 g/ha is 80% in assay [7]; 80% in assay [8]; 50% with Setaria faberi (SETFA) [9]; 40% with Avena fatua (AVEFA) [10]; 50% in assay [11]; 40% with Lolium perenne (LOLPE) [12].
